Molecular target: T1, hTRPV6 (Homo sapiens, UniProt Q9H1D0)
T1 sequence (Q9H1D0 1-765): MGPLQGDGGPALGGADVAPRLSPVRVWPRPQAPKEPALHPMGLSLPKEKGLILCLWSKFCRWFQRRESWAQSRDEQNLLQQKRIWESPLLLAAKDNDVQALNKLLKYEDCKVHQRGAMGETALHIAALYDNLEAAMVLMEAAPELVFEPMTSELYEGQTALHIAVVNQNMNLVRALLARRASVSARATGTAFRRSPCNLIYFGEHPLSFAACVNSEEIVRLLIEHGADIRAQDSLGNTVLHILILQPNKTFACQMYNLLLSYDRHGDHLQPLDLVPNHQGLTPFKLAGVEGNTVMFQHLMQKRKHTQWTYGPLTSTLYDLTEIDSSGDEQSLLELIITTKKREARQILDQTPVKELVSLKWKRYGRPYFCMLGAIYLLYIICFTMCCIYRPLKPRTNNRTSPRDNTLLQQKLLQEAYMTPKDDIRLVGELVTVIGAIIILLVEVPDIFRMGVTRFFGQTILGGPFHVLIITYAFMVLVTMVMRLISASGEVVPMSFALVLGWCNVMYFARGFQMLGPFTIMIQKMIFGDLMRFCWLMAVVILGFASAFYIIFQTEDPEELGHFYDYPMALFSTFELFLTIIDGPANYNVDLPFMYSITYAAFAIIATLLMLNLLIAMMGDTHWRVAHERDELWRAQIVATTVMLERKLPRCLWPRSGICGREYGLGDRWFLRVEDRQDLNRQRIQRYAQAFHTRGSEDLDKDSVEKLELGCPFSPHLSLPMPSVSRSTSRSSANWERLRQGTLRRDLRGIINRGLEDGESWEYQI
Experiment: Patch clamp selectivity, hTRPV6
Type: cell-based
Procedure: Data for TRPA1 inhibition and the selectivity of TRPA1 inhibition was obtained by this method for the compound of Formula (Ia) and included in Table 1 and Table 2. All currents were recorded in whole-cell configuration using EPC-9 and EPC-10 amplifiers and Patchmaster software (HEKA). […] The standard pipette solution consisted of 140 mM CsAsp, 10 mM EGTA, 10 mM HEPES, 2.27 mM MgCl2, 1.91 mM CaCl2, 4 mM MgATP, and 0.1-0.3 mM Na2GTP, with pH adjusted to 7.2 with CsOH. In addition, a solution containing 145 mM CsCl, 10 mM HEPES, 10 mM EGTA and 1 mM MgCl2 (pH 7.2 adjusted with CsOH) can be used. The standard bath solution contained 150 mM NaCl, 10 mM HEPES, 10 mM glucose, 4.5 mM KCl, 1 mM EGTA, 3 mM MgCl2, with pH adjusted to 7.4 with NaOH. In some instances, 2 mM CaCl2 was added in place of EGTA and the concentration of MgCl2 was reduced to 1 mM.
Data were collected either by continuous recordings at −60 mV or by applying voltage ramps from a holding potential of 0 mV every 4 s. […] Inward and outward currents were analyzed from the ramps at −80 and 80 mV, respectively. […]
Solutions were switched using a gravity-fed continuous focal perfusion system. […] Temperatures were confirmed using a thermistor (Warner Instruments, TA-29), with temperatures at the recorded cell estimated to be within +/−2° C. of those reported. […]

Fold Selectivity Compared to TRPA1: ~370 fold | IC50 (Voltage, Inward (−80 mV)): 34 µM
Structure (SMILES): C[C@H]1CCCN1c1ncc(-c2cccc(NC(=O)Cn3cnc4c3c(=O)n(C)c(=O)n4C)n2)cn1 [Formula (Ia)]

From patent US20140158116A1, “INHIBITING TRPA1 FOR THE TREATMENT OF ASTHMA” (Cubist Pharmaceuticals, Inc., priority 2012, published 2014)
